Results on 21 compounds are retold here after patent publication US20250368647A1, “NITROGEN CONTAINING CONDENSED 2,3-DIHYDROQUINAZOLINONE COMPOUNDS AS NAV1.8 INHIBITORS” (GLAXOSMITHKLINE INTELLECTUAL PROPERTY DEVELOPMENT LIMITED, priority 2022, published 2025).

The assay addresses human Nav1.8 (Homo sapiens (Human), UniProt Q9Y5Y9). The assay can be described thus: QPatch 48 HTX voltage-clamp electrophysiology, half inactivation state (V1/2) protocol, HEK293-Nav1.8 cells. It is filed as cell-based. The note with it: HEK293 cells expressing human Nav1.8, human Navβ1 and human TREK1, P2 current. Here is the method: Human embryonic kidney 293 cells (HEK293) expressing human Nav1.8, human Navβ1 and human TREK1 (HEK293-Nav1.8) were grown in T150 cell culture flasks at 37° C., 5% CO2 incubator. HEK293-Nav1.8 were passaged every 2-3 days when confluency reached 80-90% in T150 cell culture flasks.
Pharmacological assessment of compounds of the invention was performed using the QPatch 48 HTX electrophysiological platform. HEK293-Nav1.8 cells were prepared on the day of use by removing culture media, washing in DPBS, adding Accutase (2 mL to cover the surface, aspirate 1 mL then 1-2 minutes at 37° C.) followed by addition of CHO-SFM II to stop the enzyme digestion and in order to obtain a suspension of 3×10^6 cell/mL.
Compounds of the invention were prepared in an extracellular solution of the following composition: NaCl (145 mM), KCl (4 mM), CaCl2) (2 mM), MgCl (2 mM), HEPES (1 mM), Glucose (10 mM), pH 7.4 with NaOH Osmolality 300 mOsM/L. An intracellular solution of the following composition was used: CsF (115 mM), CsCl (20 mM), NaCl (5 mM), EGTA (10 mM), HEPES (10 mM), Sucrose (20 mM), pH 7.2 with CsOH Osmolality 310 mOsm/L.
Utilizing the voltage-clamp mode in the QPatch 48 HTX system a half inactivation state voltage protocol (V1/2) was used to determine pharmacological activity of compounds of the invention at Nav1.8 ion channels. A V1/2 protocol was utilized with the following voltage steps: a holding voltage of −100 mV was established followed by a 20 ms voltage step to 0 mV (P1), followed by an inactivating voltage step at −46 mV for 8 seconds, followed by a step to −100 mV for 20 ms, before a 20 ms step to 0 mV (P2), then returned to the holding voltage of −100 mV. This voltage protocol was repeated at a frequency of every 15 seconds, the current magnitude was quantified at the P2 step throughout the recording. Inhibition of the measured current amplitude with compounds of the invention was analyzed by fitting a 4-6 points dose-response curve allowing determination of the fifty percent inhibition concentration (IC50). P2 currents were normalized according to measurements made at baseline (Baseline, vehicle only), after compound (Input, at each test concentration), and after positive reference compound (FullResponse, to achieve complete block), fit to the following equation: […]
To assess current run-down over the course of the experiment vehicle-only wells were utilized and the normalized current with vehicle-only (n.IVEH) was determined. To correct the compound response for run-down, the currents were corrected according to the following formula: […]
Compound inhibition was fitted to the following Hill Equation to estimate the half maximal inhibition concentration (IC50)
[formula] • where Y is the normalized run-down corrected inhibition relative to the vehicle control (equivalent to n.IRD_Correct), C the test compound concentration, IC50 the concentration of test compound to inhibit the sodium current by 50%, and h the Hill coefficient.

Each structure is given as a SMILES string.

Chain of human Nav1.8 (Q9Y5Y9 whole entry): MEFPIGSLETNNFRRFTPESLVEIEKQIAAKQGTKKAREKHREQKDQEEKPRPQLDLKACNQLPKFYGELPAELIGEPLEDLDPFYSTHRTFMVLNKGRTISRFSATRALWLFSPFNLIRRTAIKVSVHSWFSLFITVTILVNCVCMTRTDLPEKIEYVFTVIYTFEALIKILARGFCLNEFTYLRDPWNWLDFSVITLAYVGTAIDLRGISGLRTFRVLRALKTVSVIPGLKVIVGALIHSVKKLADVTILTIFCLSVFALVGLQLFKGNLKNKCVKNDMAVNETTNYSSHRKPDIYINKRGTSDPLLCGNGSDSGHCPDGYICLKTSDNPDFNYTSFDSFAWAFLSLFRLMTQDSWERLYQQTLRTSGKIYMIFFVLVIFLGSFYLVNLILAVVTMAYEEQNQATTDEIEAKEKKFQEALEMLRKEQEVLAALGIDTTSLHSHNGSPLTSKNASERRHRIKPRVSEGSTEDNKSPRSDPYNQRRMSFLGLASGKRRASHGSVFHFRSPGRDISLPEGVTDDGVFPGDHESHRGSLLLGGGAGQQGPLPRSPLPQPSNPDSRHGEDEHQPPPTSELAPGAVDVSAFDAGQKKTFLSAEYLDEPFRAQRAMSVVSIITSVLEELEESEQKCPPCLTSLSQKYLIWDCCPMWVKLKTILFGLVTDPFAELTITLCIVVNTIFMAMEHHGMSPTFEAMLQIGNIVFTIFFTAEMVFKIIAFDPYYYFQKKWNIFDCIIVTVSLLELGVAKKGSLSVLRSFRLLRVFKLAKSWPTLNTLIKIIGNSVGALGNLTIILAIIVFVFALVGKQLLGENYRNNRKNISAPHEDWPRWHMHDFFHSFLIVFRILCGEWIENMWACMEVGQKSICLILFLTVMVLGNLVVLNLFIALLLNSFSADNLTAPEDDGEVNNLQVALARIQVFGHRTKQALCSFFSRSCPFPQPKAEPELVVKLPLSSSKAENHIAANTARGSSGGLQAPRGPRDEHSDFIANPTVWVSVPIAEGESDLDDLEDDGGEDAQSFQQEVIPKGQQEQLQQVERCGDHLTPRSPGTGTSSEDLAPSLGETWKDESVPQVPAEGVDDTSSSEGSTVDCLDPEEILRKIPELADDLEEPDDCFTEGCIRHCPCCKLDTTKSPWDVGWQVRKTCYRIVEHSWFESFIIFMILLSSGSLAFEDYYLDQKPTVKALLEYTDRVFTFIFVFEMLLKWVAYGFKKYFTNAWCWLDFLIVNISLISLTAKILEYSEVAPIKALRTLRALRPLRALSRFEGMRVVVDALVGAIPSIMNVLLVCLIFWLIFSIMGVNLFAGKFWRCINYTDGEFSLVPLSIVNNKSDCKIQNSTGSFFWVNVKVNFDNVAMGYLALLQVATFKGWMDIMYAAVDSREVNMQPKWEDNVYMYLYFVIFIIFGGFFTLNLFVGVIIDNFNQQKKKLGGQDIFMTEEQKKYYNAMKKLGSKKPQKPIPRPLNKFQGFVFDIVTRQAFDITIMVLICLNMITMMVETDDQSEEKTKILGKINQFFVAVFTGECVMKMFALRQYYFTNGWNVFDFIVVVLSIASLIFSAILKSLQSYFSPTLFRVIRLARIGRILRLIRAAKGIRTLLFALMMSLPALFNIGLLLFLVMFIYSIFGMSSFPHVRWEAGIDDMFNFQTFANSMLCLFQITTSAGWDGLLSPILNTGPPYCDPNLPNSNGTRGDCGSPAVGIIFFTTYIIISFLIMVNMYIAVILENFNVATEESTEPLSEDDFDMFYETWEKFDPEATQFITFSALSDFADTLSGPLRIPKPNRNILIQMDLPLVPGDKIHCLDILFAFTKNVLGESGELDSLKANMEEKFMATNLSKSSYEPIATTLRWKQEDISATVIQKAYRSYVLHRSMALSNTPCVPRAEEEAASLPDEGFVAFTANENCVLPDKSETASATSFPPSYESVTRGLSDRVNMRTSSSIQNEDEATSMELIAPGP
Chain of human Nav1.8 (Q07699 19-218 partner): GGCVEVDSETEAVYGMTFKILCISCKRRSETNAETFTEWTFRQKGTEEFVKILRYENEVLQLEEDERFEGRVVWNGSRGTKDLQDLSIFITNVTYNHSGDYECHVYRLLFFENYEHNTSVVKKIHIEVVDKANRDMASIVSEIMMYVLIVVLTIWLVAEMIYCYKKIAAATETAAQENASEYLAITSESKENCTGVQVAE

`Cl.O=C1c2cc(Cl)c(F)cc2N2CN1c1ccc(=O)[nH]c1NCCCc1c2ccc(F)c1F` [Example 101, 2-Chloro-3,8,9-trifluoro-10,11,12,13-tetrahydro-19H-5,18-methanodibenzo[f,i]pyrido[2,3-b]-[1,4,8]triazacyclotridecine-15,19(14H)-dione, hydrochloride]: the “Nav1.8, pIC50” value turned out to be 7.8.
Consider `Cl.O=C1c2cc(Cl)c(F)cc2N2CN1c1ccc(=O)[nH]c1CCNCc1c2ccc(F)c1F` [Example 69, 2-Chloro-3,8,9-trifluoro-10,11,12,13-tetrahydro-19H-5,18-methanodibenzo[c,f]pyrido[3,2-j][1,5,9]triazacyclotridecine-15,19(14H)-dione hydrochloride], for which the “Nav1.8, pIC50” value is recorded as 7.6.
On the same count and under the same terms, to `O=C1c2c(ccc(C(F)(F)F)c2F)N2CN1c1ccc(=O)[nH]c1NCCCc1cc(F)ccc12` [Example 33, 1,8-Difluoro-2-(trifluoromethyl)-10,11,12,13-tetrahydro-19H-5,18-methanodibenzo[f,i]pyrido[2,3,-b][1,4,8]triazacyclotridecine-15,19(14H)-dione] belongs 7.5; to `O=C1c2cc(F)c(C(F)(F)F)cc2N2CN1c1ccc(=O)[nH]c1NCCOCc1cc(F)ccc12` [Example 129, 2^6,3^4-Difluoro-2^7-(trifluoromethyl)-1^1,1^2,2^1,2^2,2^3,2^4-hexahydro-5-oxa-8-aza-2(3,1)-quinazolina-1(5,6)-pyridina-3(1,2)-benzenacyclooctaphane-1^2,2^4-dione], 6.4.
Turning to `O=C1c2cc(C(F)(F)F)ncc2N2CN1c1ccc(=O)[nH]c1NCCCc1cc(F)ccc12` [Example 35, 8-Fluoro-2-(trifluoromethyl)-10,11,12,13-tetrahydro-19H-5,18-methanodibenzo[i]dipyrido[2,3,-b:4′,3′-f][1,4,8]triazacyclotridecine-15,19(14H)-dione], the “Nav1.8, pIC50” value came to 6.9.
Still for that read-out and setting: then `O=C1c2ccc(C(F)(F)F)cc2N2CN1c1ccc(=O)[nH]c1NCCCc1cc(F)ccc12` [Example 28, 8-Fluoro-3-(trifluoromethyl)-10,11,12,13-tetrahydro-19H-5,18-methanodibenzo[f,i]pyrido[2,3-b][1,4,8]triazocyclotridecine-15,19(14H)-dione], with 7.5; and `Cl.O=C1c2cc(F)c(F)cc2N2CN1c1ccc(=O)[nH]c1CCNCc1c2ccc(Cl)c1F` [Example 74, 8-Chloro-2,3,9-trifluoro-10,11,12,13-tetrahydro-19H-5,18-methanodibenzo-[c,f]pyrido[3,2-j][1,5,9]triazacyclotridecine-15,19(14H)-dione hydrochloride], with 7.3.
`C[C@H]1NCCc2[nH]c(=O)ccc2N2CN(c3ccc(C(F)(F)F)cc3C2=O)c2ccc(F)cc21` [Example 115, (10R)-8-fluoro-10-methyl-2-(trifluoromethyl)-10,11,12,13-tetrahydro-19H-5,18-methanodibenzo[c,f]pyrido[3,2-j][1,5,9]triazacyclotridecine-15,19(14H)-dione]: for the setting “read-out: Nav1.8, pIC50 (converted)”, the IC50 was 100 nM.
For `Cl.O=C1c2cc(F)c(F)cc2N2CN1c1ccc(=O)[nH]c1CCNCc1c2ccc(OC(F)(F)F)c1F` [Example 87, 2,3,9-Trifluoro-8-(trifluoromethoxy)-10,11,12,13-tetrahydro-19H-5,18-methanodibenzo[c,f]pyrido[3,2-j][1,5,9]triazacyclotridecine-15,19(14H)-dione hydrochloride], the “Nav1.8, pIC50” value is 7.9.
Same read-out and setting: to `O=C1c2cc(C(F)(F)F)ccc2N2CN1c1ccc(=O)[nH]c1CNCCc1cc(F)ccc12` [Example 103, 8-Fluoro-2-(trifluoromethyl)-10,11,12,13-tetrahydro-19H-5,18-methanodibenzo[b,l]pyrido[3,2-f][1,5,9]triazacyclotridecine-15,19(14H)-dione] belongs 6.4; to `N#Cc1cc2c(cc1Cl)C(=O)N1CN2c2ccc(F)cc2CNCCc2[nH]c(=O)ccc21` [Example 55, 2-Chloro-8-fluoro-15,19-dioxo-10,11,12,13,14,15-hexahydro-19H-5,18-methano-dibenzo[c,f]pyrido[3,2-j][1,5,9]triazacyclotridecine-3-carbonitrile], 7.2; to `CN1CCc2cc(F)ccc2N2CN(C(=O)c3cc(F)c(C(F)(F)F)cc32)c2ccc(=O)[nH]c2CC1` [Example 112, 2^6,3^4-Difluoro-6-methyl-2^7-(trifluoromethyl)-1^1,1^2,2^1,2^2,2^3,2^4-hexahydro-6-aza-2(3,1)-quinazolina-1(5,6)-pyridina-3(1,2)-benzenacyclooctaphane-1^2,2^4-dione], 6.2.
Still for that read-out and setting: then `O=C1c2cnc(C(F)(F)F)cc2N2CN1c1ccc(=O)[nH]c1NCCCc1cc(F)ccc12` [Example 36, 8-Fluoro-3-(trifluoromethyl)-10,11,12,13-tetrahydro-19H-5,18-methanodibenzo[i]dipyrido[2,3,-b:3′,4′-f][1,4,8]triazacyclotridecine-15,19(14H)-dione], with 6.6; and `O=C1c2cc(C(F)(F)F)cnc2N2CN1c1ccc(=O)[nH]c1CCCCCc1cc(F)ccc12` [Example 23, 3^4-Fluoro-2^6-(trifluoromethyl)-1^1,1^2,2^1,2^2,2^3,2^4-hexahydro-2(3,1)-pyrido[2,3-d]pyrimidina-1(5,6)-pyridina-3(1,2)-benzenacyclooctaphane-1^2,2^4-dione], with 7.2; and `Cc1c(F)ccc2c1CNCCc1[nH]c(=O)ccc1N1CN2c2cc(F)c(F)cc2C1=O.Cl` [Example 68, 2,3,8-Trifluoro-9-methyl-10,11,12,13-tetrahydro-19H-5,18-methanodibenzo[c,f]pyrido[3,2-j][1,5,9]triazacyclotridecine-15,19(14H)-dione hydrochloride], with 7.7.
Turning to `C[C@H]1NCCc2[nH]c(=O)ccc2N2CN(c3cc(Cl)c(F)cc3C2=O)c2ccc(F)cc21` [Example 121, (10R)-3-chloro-2,8-difluoro-10-methyl-10,11,12,13-tetrahydro-19H-5,18-methanodibenzo[c,f]pyrido[3,2-j][1,5,9]triazacyclotridecine-15,19(14H)-dione], the “Nav1.8, pIC50” value is 7.4.
The same measure, in the same setting: to `O=C1c2cc(F)c(Cl)cc2N2CN1c1ccc(=O)[nH]c1NCCCc1cc(F)ccc12` [Example 93, 3-Chloro-2,8-difluoro-10,11,12,13-tetrahydro-19H-5,18-methanodibenzo[f,i]pyrido[2,3-b]-[1,4,8]triazacyclotridecine-15,19(14H)-dione] belongs 8.1; to `Cl.O=C1c2cc(F)c(F)cc2N2CN1c1ccc(=O)[nH]c1CCCNCc1c2ccc(F)c1Cl` [Example 109, 3^3-Chloro-2^6,2^7,3^4-trifluoro-1^1,1^2,2^1,2^2,2^3,2^4-hexahydro-5-aza-2(3,1)-quinazolina-1(5,6)-pyridina-3(1,2)-benzenacyclooctaphane-1^2,2^4-dione hydrochloride], 6.8.
In the case of `N#Cc1cc2c(cc1F)C(=O)N1CN2c2ccc(F)c(F)c2CCCNc2[nH]c(=O)ccc21` [Example 99, 2,8,9-Trifluoro-15,19-dioxo-10,11,12,13,14,15-hexahydro-19H-5,18-methano-dibenzo [f,i]pyrido[2,3-b][1,4,8]triazacyclotridecine-3-carbonitrile], the “Nav1.8, pIC50” value was determined as 7.7.
Still for that read-out and setting: then `CN1CCCc2[nH]c(=O)ccc2N2CN(c3cc(F)c(F)cc3C2=O)c2ccc(F)c(Cl)c2C1.Cl` [Example 113, 3^3-Chloro-2^6,2^7,3^4-trifluoro-5-methyl-1^1,1^2,2^1,2^2,2^3,2^4-hexahydro-5-aza-2(3,1)-quinazolina-1(5,6)-pyridina-3(1,2)-benzenacyclooctaphane-1^2,2^4-dione hydrochloride], with 6.9; and `Cl.O=C1c2cc(F)c(C(F)(F)F)cc2N2CN1c1ccc(=O)[nH]c1CNCCCc1cc(F)ccc12` [Example 105, 2^6,3^4-Difluoro-2^7-(trifluoromethyl)-1^1,1^2,2^1,2^2,2^3,2^4-hexahydro-7-aza-2(3,1)-quinazolina-1(5,6)-pyridina-3(1,2)-benzenacyclooctaphane-1^2,2^4-dione hydrochloride], with 7.8.
